Measurements reported in patent US20260125382A1, “COMPOUNDS FOR INHIBITING OR DEGRADING CDK2 AND/OR CDK9 AND MEDICINAL USE THEREOF” (KOREA RESEARCH INSTITUTE OF CHEMICAL TECHNOLOGY, priority 2022, published 2026).

Columns and labels:
[1] = target: T1, CDK9 (Homo sapiens, UniProt P50750); assay: CDK protein degradation activity (Western blotting), CDK9; format: cell-based; conditions: MDA-MB-231 cells, 16 hours, Western blot
T1 construct: endogenous in cells; host or cells: MDA-MB-231
Outline: (§1)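 CDK2 and CDK9 protein levels measured by Western blot with densitometry, using tubulin as loading reference. Cells were MDA-MB-231, exposed for 16 h to 100 nM, 1 μM or 10 μM compound or to DMSO.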

[2] = target: T2, CDK2 (Homo sapiens, UniProt P24941); assay: CDK protein degradation activity (Western blotting), CDK2; format: cell-based; conditions: MDA-MB-231 cells, 16 hours, Western blot
T2 construct: endogenous in cells; host or cells: MDA-MB-231
Outline: as §1

T1 sequence (P50750 whole entry): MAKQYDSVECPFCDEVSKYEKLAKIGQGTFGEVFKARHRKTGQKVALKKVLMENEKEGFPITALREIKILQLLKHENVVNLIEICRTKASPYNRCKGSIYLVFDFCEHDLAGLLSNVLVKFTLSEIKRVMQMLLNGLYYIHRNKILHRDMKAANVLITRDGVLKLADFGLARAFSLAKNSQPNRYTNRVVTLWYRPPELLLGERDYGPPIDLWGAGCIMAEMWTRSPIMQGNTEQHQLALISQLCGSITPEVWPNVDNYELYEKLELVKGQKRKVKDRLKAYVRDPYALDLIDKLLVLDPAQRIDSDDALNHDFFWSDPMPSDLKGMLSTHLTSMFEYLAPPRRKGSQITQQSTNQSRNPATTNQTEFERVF

Enzyme degradation CDK9 (% remaining) @ 0.1 μM [1]	Enzyme degradation CDK9 (% remaining) @ 1 μM [1]	Enzyme degradation CDK9 (% remaining) @ 10 μM [1]	Enzyme degradation CDK2 (% remaining) @ 0.1 μM [2]	Enzyme degradation CDK2 (% remaining) @ 1 μM [2]	Enzyme degradation CDK2 (% remaining) @ 10 μM [2]	SMILES
70%	50%	10%	70%	40%	40%	O=C1CCC(N2C(=O)c3cc(F)c(N4CCC(CN5CCC(CCNc6ncnc7c6ncn7[C@H]6C[C@@H](NC(=O)Cc7ccccc7)C6)CC5)CC4)cc3C2=O)C(=O)N1 (stereo partly drawn) [Compound 409, N-((1s,3s)-3-(6-((2-(1-((1-(2-(2,6-dioxopiperidin-3-yl)-6-fluoro-1,3-dioxoisoindolin-5-yl)piperidin-4-yl)methyl)piperidin-4-yl)ethyl)amino)-9H-purin-9-yl)cyclobutyl)-2-phenylacetamide]
30%	20%	20%	30%	20%	20%	O=C1CC[C@H](n2nnc3ccc(N4CCC(CN5CCC(CCNc6ncnc7c6ncn7C6CC(NC(=O)Cc7ccccc7)C6)CC5)CC4)cc3c2=O)C(=O)N1 (stereo partly drawn) [Compound 410, N-((1s,3s)-3-(6-((2-(1-((1-(3-(2,6-dioxopiperidin-3-yl)-4-oxo-3,4-dihydrobenzo[d][1,2,3]triazin-6-yl)piperidin-4-yl)methyl)piperidin-4-yl)ethyl)amino)-9H-purin-9-yl)cyclobutyl)-2-phenylacetamide]
10/10/10%	10/10/10%	10/10/10%	40/40/40%	40/40/40%	40/40/40%	O=C1CC[C@H](N2C(=O)c3ccc(N4CC(C(=O)N5CCC(CN6CCC(CCNc7ncnc8c7ncn8[C@H]7C[C@@H](NC(=O)Cc8ccccc8)C7)CC6)CC5)C4)cc3C2=O)C(=O)N1 [Compound 411, N-((1s,3s)-3-(6-((2-(1-((1-(1-(2-(2,6-dioxopiperidin-3-yl)-1,3-dioxoisoindolin-5-yl)azetidin-3-carbonyl)piperidin-4-yl)methyl)piperidin-4-yl)ethyl)amino)-9H-purin-9-yl)cyclobutyl)-2-phenylacetamide]
10/10/10%	10/10/10%	10/10/10%	20/20/20%	20/20/20%	20/20/20%	N#Cc1cccc(C(=O)N[C@H]2C[C@@H](n3cnc4c(Nc5ccc(N6CCN(CC7CCN(c8cc9c(cc8F)C(=O)N(C8CCC(=O)NC8=O)C9=O)CC7)CC6)cc5)ncnc43)C2)n1 (stereo partly drawn) [Compound 414, 6-cyano-N-((1s,3s)-3-(6-((4-(4-((1-(2-(2,6-dioxopiperidin-3-yl)-6-fluoro-1,3-dioxoisoindolin-5-yl)piperidin-4-yl)methyl)piperazin-1-yl)phenyl)amino)-9H-purin-9-yl)cyclobutyl)picolinamide]
10/10/10%	10/10/10%	10/10/10%	20/20/20%	20/20/20%	20/20/20%	O=C1CC[C@H](N2C(=O)c3cc(F)c(N4CCC(CN5CCN(c6ccc(Nc7ncnc8c7ncn8C7CC(NC(=O)c8cccc(C(F)(F)F)n8)C7)cc6)CC5)CC4)cc3C2=O)C(=O)N1 (stereo partly drawn) [Compound 415, N-((1s,3s)-3-(6-((4-(4-((1-(2-(2,6-dioxopiperidin-3-yl)-6-fluoro-1,3-dioxoisoindolin-5-yl)piperidin-4-yl)methyl)piperazin-1-yl)phenyl)amino)-9H-purin-9-yl)cyclobutyl)-6-(trifluoromethyl)picolinamide]
10/10/10%	10/10/10%	10/10/10%	20%	10%	10%	O=C1CC[C@H](N2C(=O)c3cc(F)c(N4CCC(CN5CCN(c6ccc(Nc7ncnc8c7ncn8[C@H]7C[C@@H](NC(=O)c8cccc(Cl)n8)C7)cc6)CC5)CC4)cc3C2=O)C(=O)N1 [Compound 416, 6-chloro-N-((1s,3s)-3-(6-((4-(4-((1-(2-(2,6-dioxopiperidin-3-yl)-6-fluoro-1,3-dioxoisoindolin-5-yl)piperidin-4-yl)methyl)piperazin-1-yl)phenyl)amino)-9H-purin-9-yl)cyclobutyl)picolinamide]

More lines, now with the values behind:

SMILES	Enzyme degradation CDK9 (% remaining) @ 0.1 μM [1]	Enzyme degradation CDK9 (% remaining) @ 1 μM [1]	Enzyme degradation CDK9 (% remaining) @ 10 μM [1]	Enzyme degradation CDK2 (% remaining) @ 0.1 μM [2]	Enzyme degradation CDK2 (% remaining) @ 1 μM [2]	Enzyme degradation CDK2 (% remaining) @ 10 μM [2]
O=C1CC[C@H](N2C(=O)c3cc(F)c(N4CCC(CCN5CCN(c6ccc(Nc7ncnc8c7ncn8C7CC(NC(=O)c8c(Cl)cccc8Cl)C7)cc6)CC5)CC4)cc3C2=O)C(=O)N1 (stereo partly drawn) [Compound 406, 2,6-dichloro-N-((1s,3s)-3-(6-((4-(4-(2-(1-(2-(2,6-dioxopiperidin-3-yl)-6-fluoro-1,3-dioxoisoindolin-5-yl)piperidin-4-yl)ethyl)piperazin-1-yl)phenyl)amino)-9H-purin-9-yl)cyclobutyl)benzamide]	0/0/0%	0/0/0%	0/0/0%	30/30/30%	30/30/30%	30/30/30%
O=C1CCC(n2nnc3ccc(N4CCC(CCN5CCN(c6ccc(Nc7ncnc8c7ncn8[C@H]7C[C@@H](NC(=O)c8c(Cl)cccc8Cl)C7)cc6)CC5)CC4)cc3c2=O)C(=O)N1 (stereo partly drawn) [Compound 407, 2,6-dichloro-N-((1s,3s)-3-(6-((4-(4-(2-(1-(3-(2,6-dioxopiperidin-3-yl)-4-oxo-3,4-dihydrobenzo[d][1,2,3]triazin-6-yl)piperidin-4-yl)ethyl)piperazin-1-yl)phenyl)amino)-9H-purin-9-yl)cyclobutyl)benzamide]	0/0/0%	0/0/0%	0/0/0%	60/60/60%	60/60/60%	60/60/60%
O=C1CC[C@H](N2C(=O)c3ccc(CCCCN4CCC(N5CCN(c6ccc(Nc7ncnc8c7ncn8C7CC(NC(=O)Cc8ccccc8)C7)cc6)CC5)CC4)cc3C2=O)C(=O)N1 (stereo partly drawn) [Compound 408, N-((1s,3s)-3-(6-((4-(4-(1-(4-(2-(2,6-dioxopiperidin-3-yl)-1,3-dioxoisoindolin-5-yl)butyl)piperidin-4-yl)piperazin-1-yl)phenyl)amino)-9H-purin-9-yl)cyclobutyl)-2-phenylacetamide]	20%	10%	10%	40%	30%	30%
O=C1CC[C@H](N2C(=O)c3ccc(N4CC(C(=O)N5CCC(CCN6CCN(c7ccc(Nc8ncnc9c8ncn9C8CC(NC(=O)c9c(Cl)cccc9Cl)C8)cc7)CC6)CC5)C4)cc3C2=O)C(=O)N1 (stereo partly drawn) [Compound 412, 2,6-dichloro-N-((1s,3s)-3-(6-((4-(4-(2-(1-(1-(2-(2,6-dioxopiperidin-3-yl)-1,3-dioxoisoindolin-5-yl)azetidin-3-carbonyl)piperidin-4-yl)ethyl)piperazin-1-yl)phenyl)amino)-9H-purin-9-yl)cyclobutyl)benzamide]	10/10/10%	10/10/10%	10/10/10%	30/30/30%	30/30/30%	30/30/30%
O=C1CC[C@H](N2C(=O)c3ccc(N4CCC(C(=O)N5CCC(CCN6CCN(c7ccc(Nc8ncnc9c8ncn9C8CC(NC(=O)c9c(Cl)cccc9Cl)C8)cc7)CC6)CC5)CC4)cc3C2=O)C(=O)N1 (stereo partly drawn) [Compound 413, 2,6-dichloro-N-((1s,3s)-3-(6-((4-(4-(2-(1-(1-(2-(2,6-dioxopiperidin-3-yl)-1,3-dioxoisoindolin-5-yl)piperidin-4-carbonyl)piperidin-4-yl)ethyl)piperazin-1-yl)phenyl)amino)-9H-purin-9-yl)cyclobutyl)benzamide]	10/10/10%	10/10/10%	10/10/10%	30%	20%	20%
O=C1CC[C@H](n2nnc3ccc(N4CCC(CN5CCN(c6ccc(Nc7ncnc8c7ncn8C7CC(NC(=O)c8cccc(Cl)n8)C7)cc6)CC5)CC4)cc3c2=O)C(=O)N1 (stereo partly drawn) [Compound 417, 6-chloro-N-((1s,3s)-3-(6-((4-(4-((1-(3-(2,6-dioxopiperidin-3-yl)-4-oxo-3,4-dihydrobenzo[d][1,2,3]triazin-6-yl)piperidin-4-yl)methyl)piperazin-1-yl)phenyl)amino)-9H-purin-9-yl)cyclobutyl)picolinamide]	10/10/10%	10/10/10%	10/10/10%	10%	0%	0%
